Results as given in patent publication US20240299591A1, “Antimicrobial Peptides and Their Use” (priority 2021, published 2024).
In brackets after ≈: the same amount, converted by molar mass. Where a SMILES comes first, the peptide text is derived from it. [ ]: non-standard residue; d: D form. The star is where a group is joined. X1 = CN1/C(=C/C=C(/C=C/C2=[N+](C)c3ccccc3C2(C)C)c2ccc(C(=O)*)cn2)C(C)(C)c2ccccc21; X2 = O=C1OC2(c3ccc(O)cc3Oc3cc(O)ccc32)c2cccc(C(=O)*)c21

Key:
Type in all cases: cell-based
Aspergillus fumigatus = conditions: 24 h
Method: The assays were performed using Nunc 262162 U96 polystyrene round bottomed clear plates (www.nuncbrand.com).
(§1) When testing the peptides against A. fumigatus, peptides at different concentrations were mixed with A. fumigatus conidia to reach a final volume of 100 μL per well. The final conidial concentration was 5×10^5 cells/mL in 10% Vogel's medium. After 24 h of incubation at 37° C. in 96 well plates, fungal growth with the different peptide concentrations was determined by measurement of the optical density at 610 nm in a TriStar LB 941 Multimode Microplate Reader. The IC50 values were determined using four parameter logistic regression formula provided by Sigma Plot 10.0. Values are represented as means±SEM from two independent experiments (n=3).
(§2) The IC50 of the fluorescently labelled peptides cannot be accurately determined using the optical density method described in the last section. This is because the fluorophore structures absorbed light at 610 nm which was the wavelength used for the optical density measurements. In order to overcome this, the BacTiter-Glo™ Microbial Cell Viability Assay kit purchased from Promega was used. The BacTiter-Glo™ Reagent relies on the properties of a proprietary thermostable luciferase (Ultra-Glo™ Recombinant Luciferase) and a proprietary formulation for extracting ATP from fungal cells which will generates a ‘glow-type’ luminescent signal. This is produced by the luciferase reaction shown in Scheme 1, which has a signal half-life of over 30 min depending on the experimental conditions. The luminescent signal is proportional to the amount of ATP present, which is directly proportional to the number of living cells in culture.
(§3) The IC50 assays for all fluorescently labelled peptides were performed using Greiner CELLSTAR white polystyrene wells flat bottomed 96 well plates. The incubation conditions remained the same for the optical density measurement described in the previous section. Once the incubation procedure was finished, the plate was equilibrated to room temperature. A mixture of BacTiter-Glo™ buffer and substrate was then added to the plate (100 μL per well). The plate was shaken for 5 min and read using the Tristar […] luminometer. Data analysis was performed using Sigma Plot 10.0. All values shown are presented as means±SEM from two independent experiments (n=3).

Fusarium oxysporum = conditions: 24 h
Method: Dose dependent inhibition of fungal growth by all non-labelled peptides (indicated by IC50 values) was determined via this methodology. The assays were performed using Nunc 262162 U96 polystyrene round bottomed clear plates (www.nuncbrand.com).
as §1
When testing the peptides against N. crassa and F. oxysporum, experiments were carried as described above apart from the incubation temperature was changed to 25° C. for N. crassa and 35° C. for F. oxysporum.
as §2, §3

[1] = test system: C. albicans, F. oxysporum, A. fumigatus, and C. neoformans; assay: Live cell imaging, fluorescent labelling of pathogenic fungi; parameters: dose or concentration left out as unconfirmed; conditions: 15 min incubation at 37° C. in RPMI
Method: The N. crassa mat A WT used for confocal live-cell imaging was grown on 100% Vogel's agar medium at 25° C. for 3-5 days before the spores were harvested. The A. fumigatus CEA10 strain used for confocal live-cell imaging was grown on 100% Vogel's medium at 37° C. for 4-5 days before the spores were harvested. Before the confocal experiments were performed, N. crassa spores were incubated in eight-well slide culture chambers for 3 h at 25° C. in liquid 10% Vogel's medium and A. fumigatus spores were incubated for 16 h at 25° C. in liquid 10% Vogel's medium in order to allow germination to fully take place for imaging.
Live-cell imaging of germinated fungi spores was performed using a Leica TCS SP8 confocal laser scanning microscope equipped with photo multiplier tubes (PMT), hybrid GaAsP (HyD) detectors and a 63× water immersion objective. A Leica turntable white light laser (WLL, 450-750 nm), argon laser (458 nm, 476 nm, 488 nm and 496 nm) and UV laser (405 nm) were used for fluorescence excitation.
The major pathogenic fungi include C. albicans, F. oxysporum, A. fumigatus, and C. neoformans.

[2] = Viability of reconstructed cornea-like epithelium (eye irritation model); conditions: human, reconstructed cornea-like epithelium (RhCE, EpiOcular™)
Method: (§4) FIG. 4a is a graph of the viability reconstructed cornea-like epithelium (RhCE, EpiOcular™) after incubation with MFIGA001. NC=Negative Control; PC=Positive Control. FIG. 4b is a graph of the viability reconstructed cornea-like epithelium (RhCE, EpiOcular™) after incubation with 10 µM of MFIGA001a and MFIGAF001b. NC=Negative Control; PC=Positive Control; A2=MFIGAF001a; and B1=MFIGAF001b.
(§5) MFIGAF001 was also assessed independently by a CRO (Evotec) in an OECD compliant reconstructed cornea-like epithelial cell model (RhCE, EpiOcular™).

[3] = test system: reconstructed cornea-like epithelium (RhCE, EpiOcular™); assay: as above
Method: as §4, §5

| Compound | IC50 Aspergillus fumigatus (Aspergillus fumigatus) | IC50 Fusarium oxysporum (Fusarium oxysporum) | Fluorescent labelling of pathogenic fungi [1] | viability at 10 µM [2] | Toxicity, reconstructed cornea-like epithelium (FIG. 4) [3] |
| --- | --- | --- | --- | --- | --- |
| C[C@@H](NC(=O)[C@H](CCCCN)NC(=O)[C@H](CCCCN)NC(=O)[C@@H](N)CCCNC(=N)N)C(=O)N[C@@H](Cc1c[nH]c2ccccc12)C(=O)N[C@@H](Cc1ccccc1)C(=O)N[C@@H](Cc1c[nH]c2ccccc12)C(=O)NCC(=O)O [MFIGAF000, NH2-Arg-Lys-Lys-ala-Trp-Phe-Trp-Gly-COOH] (HELM PEPTIDE1{R.K.K.[dA].W.F.W.G}$$$$V2.0) | 5.3 µg/mL (≈ 4.92 µM) | 4.2 µg/mL (≈ 3.9 µM) |  |  |  |
| N=C(N)NCCC[C@@H]1NC(=O)CNC(=O)[C@H](CCCCNC(=O)c2cccc3c2C(=O)OC32c3ccc(O)cc3Oc3cc(O)ccc32)NC(=O)[C@H](Cc2c[nH]c3ccccc23)NC(=O)[C@H](Cc2ccccc2)NC(=O)[C@H](Cc2c[nH]c3ccccc23)NC(=O)[C@@H](Cc2ccccc2)NC(=O)[C@H](CCCCN)NC(=O)[C@H](CCCCN)NC1=O [MFIGAF001b, Cyclo(Arg-Lys-Lys-phe-Trp-Phe-Trp-Lys(CF)-Gly)] (cyclo(FWK(X2)GRKK[dF]W)) | 2.1 µg/mL (≈ 1.29 µM) | 2.3 µg/mL (≈ 1.42 µM) | label all major pathogenic fungi that cause fungal keratitis | 99.1% | no obvious toxicity |
| CN1/C(=C/C=C(/C=C/C2=[N+](C)c3ccccc3C2(C)C)c2ccc(C(=O)NCCCC[C@@H]3NC(=O)[C@H](Cc4c[nH]c5ccccc45)NC(=O)[C@H](Cc4ccccc4)NC(=O)[C@H](Cc4c[nH]c5ccccc45)NC(=O)[C@@H](Cc4ccccc4)NC(=O)[C@H](CCCCN)NC(=O)[C@H](CCCCN)NC(=O)[C@H](CCCNC(=N)N)NC3=O)cn2)C(C)(C)c2ccccc21 [MFIGAF001c, Cyclo(Arg-Lys-Lys-phe-Trp-Phe-Trp-Lys(Cy5))] (cyclo(FWK(X1)RKK[dF]W)) | 1.5 µg/mL | 1.8 µg/mL |  |  |  |
| N=C(N)NCCC[C@@H]1NC(=O)[C@H](CCCCNC(=O)c2cccc3c2C(=O)OC32c3ccc(O)cc3Oc3cc(O)ccc32)NC(=O)[C@H](Cc2c[nH]c3ccccc23)NC(=O)[C@H](Cc2ccccc2)NC(=O)[C@H](Cc2c[nH]c3ccccc23)NC(=O)[C@@H](Cc2ccccc2)NC(=O)[C@H](CCCCN)NC(=O)[C@H](CCCCN)NC1=O [MFIGAF001d, Cyclo(Arg-Lys-Lys-phe-Trp-Phe-Trp-Lys(CF))] (cyclo(FWK(X2)RKK[dF]W)) | 2.9 µg/mL (≈ 1.85 µM) | 3.0 µg/mL (≈ 1.92 µM) |  |  |  |
| N=C(N)NCCC[C@H](N)C(=O)N[C@@H](CCCCN)C(=O)N[C@@H](CCCCN)C(=O)N[C@H](Cc1ccccc1)C(=O)N[C@@H](Cc1c[nH]c2ccccc12)C(=O)N[C@@H](Cc1ccccc1)C(=O)N[C@@H](Cc1c[nH]c2ccccc12)C(=O)NCC(=O)O [MFIGAF002, NH2-Arg-Lys-Lys-phe-Trp-Phe-Trp-Gly-COOH] (HELM PEPTIDE1{R.K.K.[dF].W.F.W.G}$$$$V2.0) | 2.8 µg/mL (≈ 2.43 µM) | 3.5 µg/mL (≈ 3.03 µM) |  |  |  |
| N=C(N)NCCC[C@H](N)C(=O)N[C@@H](CCCCN)C(=O)N[C@@H](CCCCN)C(=O)N1CCC[C@H]1C(=O)N[C@@H](Cc1c[nH]c2ccccc12)C(=O)N[C@@H](Cc1ccccc1)C(=O)N[C@@H](Cc1c[nH]c2ccccc12)C(=O)NCC(=O)O [MFIGAF003, NH2-Arg-Lys-Lys-pro-Trp-Phe-Trp-Gly-COOH] | 5.2 µg/mL (≈ 4.71 µM) | 4.1 µg/mL (≈ 3.71 µM) |  |  |  |
| N=C(N)NCCC[C@H](N)C(=O)N[C@@H](CCCCN)C(=O)N[C@@H](CCCCN)C(=O)N1CCC[C@@H]1C(=O)N[C@@H](Cc1c[nH]c2ccccc12)C(=O)N[C@@H](Cc1ccccc1)C(=O)N[C@@H](Cc1c[nH]c2ccccc12)C(=O)NCC(=O)O [MFIGAF004] | 5.2 µg/mL (≈ 4.71 µM) | 4.1 µg/mL (≈ 3.71 µM) |  |  |  |
| C[C@H]1NC(=O)[C@H](CCCCN)NC(=O)[C@H](CCCCN)NC(=O)[C@H](CCCNC(=N)N)NC(=O)CNC(=O)[C@H](Cc2c[nH]c3ccccc23)NC(=O)[C@H](Cc2ccccc2)NC(=O)[C@H](Cc2c[nH]c3ccccc23)NC1=O [MFIGAF005, Cyclo(Arg-Lys-Lys-ala-Trp-Phe-Trp-Gly)] (HELM PEPTIDE1{F.W.G.R.K.K.[dA].W}$PEPTIDE1,PEPTIDE1,1:R1-8:R2$$$V2.0) | 6.3 µg/mL (≈ 5.94 µM) | 3.1 µg/mL (≈ 2.92 µM) |  |  |  |
| N=C(N)NCCC[C@@H]1NC(=O)CNC(=O)[C@H](Cc2c[nH]c3ccccc23)NC(=O)[C@H](Cc2ccccc2)NC(=O)[C@H](Cc2c[nH]c3ccccc23)NC(=O)[C@@H]2CCCN2C(=O)[C@H](CCCCN)NC(=O)[C@H](CCCCN)NC1=O [MFIGAF007, Cyclo(Arg-Lys-Lys-pro-Trp-Phe-Trp-Gly)] | 5.2 µg/mL (≈ 4.79 µM) | 3.4 µg/mL (≈ 3.13 µM) |  |  |  |
| N=C(N)NCCC[C@@H]1NC(=O)CNC(=O)[C@H](Cc2c[nH]c3ccccc23)NC(=O)[C@H](Cc2ccccc2)NC(=O)[C@H](Cc2c[nH]c3ccccc23)NC(=O)[C@H]2CCCN2C(=O)[C@H](CCCCN)NC(=O)[C@H](CCCCN)NC1=O [MFIGAF008] | 5.5 µg/mL (≈ 5.06 µM) | 3.8 µg/mL (≈ 3.5 µM) |  |  |  |
| H-RKKWFW-NH2 [PAF26, NH2-Arg-Lys-Lys-Trp-Phe-Trp-CONH2, reference compound] | 8.0 µg/mL | 7.2 µg/mL |  |  |  |
